Measured values as given in patent publication US20150148411A1, “COMPOSITIONS AND METHODS FOR DIAGNOSIS AND THERAPY OF DISORDERS RELATED TO ALTERATIONS OF MYH9” (THE ROCKEFELLER UNIVERSITY, priority 2013, published 2015).
“Also recorded” adds a separate entry of the source. Where a SMILES comes first, the peptide text is derived from it. The star is where a group is joined. Cbz = O=C(OCc1ccccc1)*

Key:
[1] = test system: p53 activation; experiment: p53/DNA damage response: p53 immunoblot of doxorubicin-treated primary keratinocytes; type: cell-based, mouse; conditions: for DDR-induced p53 activation (p53 immunoblot): doxorubicin-treated mouse keratinocytes, blebbistatin 4 μM, Y27632 10 μM, latrunculin 2 μM
Procedure: (§1) Western Blot analysis:-Protein blotting was carried out using standard protocols. Briefly, total cell lysates were prepared using RIPA (20 mM Tris-HCl (pH 8.0), 150 mM NaCl 1 mM EDTA, 1mM EGTA, 1% Triton X-100, 0.5% Deoxycorate, 0.1% SDS, 25 mM β-glycerophosphate, 10 mM NaF, 1 mM Na3VO4) supplemented with protease inhibitors (Complete mini, Roche). Blots were blocked with 5% BSA in 1×TBS 0.1% Tween-20 (TBST) for 1 h and incubated with the primary antibody overnight at 4° C. (diluted in TBST according to the manufacturer's protocol). Primary antibodies were reactive to rabbit anti-Myh9 (1:500, HPA001644, Sigma); phosphorylated (P) Erk1/2 (1:1000, #9101, Cell Signaling), Erk1/2 (1:1000, #9102, Cell Signaling), mouse anti-p53 (1:500, #2524, Cell Signaling), mouse anti-p21(F5) (1:500; sc-6246, Santa Cruz), mouse anti-GAPDH (ab8245, 1:5000; Abcam), mouse anti-Chk2 (1:500, #611570, BD); rabbit anti-P-Chk1 (1:500, #12302P, Cell Signaling); mouse anti-Chk1 (1:1000, 2360S, Cell Signaling); rabbit anti-pSmad2 (Ser465/467) (1:1000, Cell Signaling) and mouse anti-Smad2/3 (610843, 1/500; BD). Blots were washed three times in TBST for 30 min, incubated with HRP-conjugated secondary antibodies (1:2,000; Promega) for lh at room temperature, washed 3 times in TBST for 30 min and visualized using enhanced chemiluminescence (ECL).
(§2) p53/DNA damage responses:_For measurement of DNA damage response and p53 activation primary mouse keratinocytes cells were seeded at a cell density of 100,000 cells per well in a 6-well plate and allowed to grow for 24 h at 3% O2 till importantly 100% confluency. Cells were then treated with doxorubicin ([…]) as previously reported. For experiments using blebbistatin, cells were pretreated with blebbistatin (4 μM final concentration, Sigma B0560) 30 min prior to doxorubicin treatment. The Rock inhibitor Y27632 was used at 10 μM (Sigma Y0503), LatrunculinA was used at 2 μM (Sigma L5163), LeptomycinB was used at 20 nM (Sigma #9676) and the proteasome inhibitor MG132 was used at 3 μM (Sigma M7449).

[2] = test system: H2AX, Chk1 and Chk2; experiment: DDR activation markers by Western blot (γH2AX, phosphorylated Chk1, Chk2); type: cell-based, mouse; conditions: keratinocytes treated with inhibitor
Procedure: as §1, §2

[3] = test system: nuclear p53 accumulation; experiment: Nuclear p53 retention in DDR-induced Myh9-knockdown primary keratinocytes (nuclear/cytoplasmic fractions); type: cell-based, mouse; conditions: LeptomycinB 20 nM; for nuclear p53 accumulation/retention after DNA damage: DDR-induced Myh9-knockdown (myosin-IIa-deficient) keratinocytes, blebbistatin 4 μM
Procedure: as §1, §2

[4] = test system: HNSCC tumor suppressors; experiment: Pooled in vivo shRNA screen with deep sequencing of tumors; set-up: species or system mouse; conditions: deep sequencing of 87 lesions
Description: Constructs and RNAi: shRNA constructs for the shRNA pool were obtained from The Broad Institute's Mission TRC-1 mouse library. We tested and used especially the following shRNAs targeting Brcal and Myh9:
Tumor free survival: Control and TβRII-cKO animals were transduced at E9.5 with low-titer shRNA pool targeting orthologs of putative HNSCC genes, including Brcal or Myh9. Scrambled shRNA was used as control. Transductions and knockdowns were confirmed by real-time PCR of mRNAs isolated from newborn skin epidermis or by fluorescence microscopy of a lentiviral reporter fluor, H2B-RFP or H2B-GFP. Animals were assessed biweekly for signs of tumorigenesis, and were considered positive if lesions grew to be larger than 2 mm in diameter.
Deep Sequencing: Sample preparation, preamplification and sequence processing Epidermal and tumor cells were subjected to genomic DNA isolation with the DNeasy Blood & Tissue Kit (Qiagen), and each sample was analyzed for target transduction using real-time PCR. […] Illumina reads were trimmed to the 21 nt hairpin sequence using the FASTX-Toolkit and aligned to the TRC 2.x library with BWA (v 0.6.2)44 using a maximum edit distance of 3. Hits were ranked based on (a) numbers of shRNAs that targeted the gene and scored positively in the screen, with 2 out of 5 shRNAs being considered meaningful; and (b) numbers of tumors enriched for a specific shRNA.

[5] = test system: keratinocytes; experiment: Scratch wound assay on keratinocytes infected in vitro; type: cell-based, mouse; conditions: versus scrambled control
[6] = test system: hair follicle down-growth; experiment: Hair follicle and eyelid phenotype of newborn mice transduced at E9.5; type: in vivo, mouse
Procedure: Materials and Methods. Mice and lentiviral transductions: TβRII foxed mice were crossed to K14-Cre and/or Rosa26YFPlox/stop/lox mice and or K14-CreER mice. Myh9 floxed mice were purchased form EMMA (EM:02572). CD1 mice were from Charles River laboratories. Large-scale production and concentration of lentivirus (6−10^9 cfu/ml) as well as ultrasound-guided lentiviral injection were performed as previously described. As controls for knock-down mice, littermates were infected with a non-targeting scrambled-shRNA, which activates the endogenous microRNA processing pathway but is not known to target any gene. Myh9fl/fl K14CreER mice were injected i.p. with 2 mg tamoxifen (20 mg/ml stock solution in corn oil) for 5 consecutive days at 6-8 weeks of age. DMBA/TPA treatment was performed as previously described. Briefly, 7-8 week old CD1 mice in second telogen were shaved and treated with 400 nmol DMBA in 100 ul aceton one week later. Thereafter, mice were treated with […] TPA in 100 ul aceton wice weekly for 20 weeks. All animals were maintained in an AAALAC-approved animal facility and procedures were performed with protocols approved by IACUC and in accordance with the National Institutes of Health.
Immunohistochemistry and histological analyses of mouse and human Tumors: Immunohistochemistry was performed as previously described. […]

[7] = test system: myosin-IIa; experiment: Myosin-IIa protein by immunoblot/immunohistochemistry in transduced mice; type: in vivo, mouse
Procedure: Immunohistochemistry and histological analyses of mouse and human Tumors: Immunohistochemistry was performed as previously described. Briefly, 5-μm sections were cut, stained with H&E or processed for immunohistochemistry/immunofluorescence microscopy. Whole-mount staining of mammary glands was performed as described. For immunoperoxidase staining, paraffin-embedded sections were dehydrated and antigenic epitopes exposed using a 10-mM citrate buffer (pH 6.0) in a pressure cooker. Sections were incubated with the following primary antibodies at 4° C. overnight: rabbit anti-K14 (1:500; E. Fuchs) and rabbit anti-Myh9 (HPA001644, 1:500 Sigma). Primary antibody staining was visualized using peroxidase-conjugated anti-rabbit IgG followed by the DAB substrate kit for peroxidase visualization of secondary antibodies (Vector Laboratories). The following human tissue microarray comprising 48 healthy human skin samples, 30 hyperplastic skin lesions and 206 human skin SCCs as well as from 156 HNSCCs were obtained from US Biomax, Rockeville, Md.: SK244a, SK241, SK242, SK801, SK802, SK2081, SK801b and HN803a, HN811a, HN483.
Western Blot analysis:-Protein blotting was carried out using standard protocols. […]

[8] = test system: nuclear p53; experiment: Nuclear p53 immunofluorescence in skin 6 hours after γ-irradiation (5Gy); type: in vivo, mouse; conditions: H2B-RFP labeled infected cells
Description: Immunofluorescence staining The following primary antibodies were used for immunofluorescence: chicken anti-GFP (1:2000; Abcam); guinea-pig anti-K5 (1:500; E. Fuchs); rat anti-K14 (1:500; E. Fuchs); rabbit anti-K6 (1:500; E. Fuchs); rabbit anti-K18 (1:500; E. Fuchs); rat anti-CD104 β4-integrin (346-11A, 1:300; BD); rabbit anti loricin (1:500; E. Fuchs); rabbit anti-Caspase 3 (AF835, 1:1000; R&D), rabbit anti-K10 (PRB-159P, 1:1000; Covance); rabbit anti-Myh9 (HPA001644, 1:500 Sigma); rabbit anti-SMA (ab5694 1:300; Abcam) and rabit anti-p53 (NCL-p53-CMSp, 1:300; Leica). Secondary antibodies were conjugated to Alexa-488, 546, or 647 (1:1000, Life Technologies). Cells and tissues were processed as previously reported, and mounted in Vectashield HardSet mounting medium with DAPI (Life Technologies). […] For quantifications of nuclear p53, images were captured using an inverted Zeiss LSM 780 laser scanning microscope, powered by Zen software. Quantitative image analysis was performed using ImageJ software. To quantify p53 nuclear staining, the following formula was used: CTCF (corrected total cell fluorescence)=whole nucleus signal−(mean background signal (measured in the suprabasal layer)×area of the nucleus measured).

Compound: CC(C)C[C@@H](C=O)NC(=O)[C@H](CC(C)C)NC(=O)[C@H](CC(C)C)NC(=O)OCc1ccccc1 [MG132] (Cbz-Leu-Leu-Leu-aldehyde)
- p53 protein levels in presence of proteasome inhibitor ([1]; Myh9-knockdown and control keratinocytes, DNA damage, MG132 3 μM): rescues Myh9 phenotype; also recorded: comparably induced in both Myh9-knockdown and control keratinocytes

Compound: C[C@@H](N)[C@H]1CC[C@H](C(=O)Nc2ccncc2)CC1 [Y27632]
- DDR activation (γH2AX, phosphorylated Chk1 and Chk2) [2]: normal DDR activation

Compound: Cc1ccc2c(c1)C(=O)C1(O)CCN(c3ccccc3)C1=N2 (centres unmarked) [blebbistatin]
- DDR-induced p53 activation (p53 immunoblot) [1]: phenocopied Myh9 loss of function effects on DDR-induced p53 activation
- nuclear p53 accumulation/retention after DNA damage [3]: Nuclear p53 is not retained
- DDR activation (γH2AX, phosphorylated Chk1 and Chk2) [2]: normal DDR activation

Compound: COc1cccc2c1C(=O)c1c(O)c3c(c(O)c1C2=O)C[C@@](O)(C(=O)CO)C[C@@H]3O[C@H]1C[C@H](N)[C@H](O)[C@H](C)O1 [doxorubicin]
- p53 activation by DNA damage inducer ([1]; control primary keratinocytes): led to p53 activation

Compound: CCC(=C/[C@H](C)C/C=C/C(C)=C/[C@@H](C)C(=O)[C@@H](C)[C@H](O)[C@@H](C)C/C(C)=C/C(=O)O)/C=C/[C@@H]1OC(=O)C=C[C@@H]1C [leptomycinB]
- nuclear p53 accumulation/retention after DNA damage [3]: restored to normal levels
- nuclear p53 accumulation/retention after DNA damage ([3]; listed as Leptomycin B): rescues the ability of Myh9-deficient cells to retain p53 in the nucleus; also recorded: restores p53 accumulation after DNA damage
- transactivation of p53 target genes such as CDKN2 (p21) ([3]; DDR-induced myosin-IIa-deficient keratinocytes): restored to normal levels

Compound: Brcal-shRNA#560: positive-control shRNA targeting Brca1, 5′-CCCATCATACTTTAATGTGTA-3′ (SEQ ID NO: 1)
- shRNA enrichment in lesions relative to initial pool and healthy skin [4]: highly enriched

Compound: Myh9-shRNA #504: shRNA targeting Myh9, 5′-CGGTAAATTCATTCGTATCAA-3′ (SEQ ID NO: 3)
- keratinocyte migration (wound closure) [5]: enhances keratinocyte migration
- hair follicle down-growth [6]: impaired hair follicle down-growth
- myosin-IIa protein in skin/epidermis ([7]; mice transduced in utero, examined at birth): loss of myosin-IIa
- myosin-IIa immunolabeling in SCC tumor epithelium ([7]; tumors from TβRII-cKO mice): absent

Compound: Myh9-shRNA #507: shRNA targeting Myh9, 5′-GCGATACTACTCAGGGCTTAT-3′ (SEQ ID NO: 6)
- nuclear p53 staining in skin [8]: do not show efficient nuclear p53 staining

Compound: latrunculin
- DDR-induced p53 activation (p53 immunoblot) [1]: did not display these effects
- DDR activation (γH2AX, phosphorylated Chk1 and Chk2) [2]: normal DDR activation
